Experimental data reported in ChEMBL document CHEMBL1649507, “CMY-29 and CMY-30, two novel plasmid-mediated AmpC beta-lactamases” (2009).
Values after ≈ are worked out from the molar mass of the structure shown.

Columns and labels:
Type in all cases: functional
Escherichia coli [1] = experiment: Antibacterial activity against Escherichia coli isolate ARL05-705 harboring beta-lactamase CMY 7 by broth microdilution method
Escherichia coli [2] = experiment: Antibacterial activity against Escherichia coli isolate ARL06-39 harboring beta-lactamase CMY 30 by broth microdilution method
Escherichia coli [3] = experiment: Antibacterial activity against Escherichia coli isolate ARL05-909 harboring beta-lactamase CMY 29 by broth microdilution method
Escherichia coli [4] = experiment: Antibacterial activity against Escherichia coli isolate ARL04-413 harboring beta-lactamase CMY 2 by broth microdilution method

## CO/N=C(\C(=O)N[C@@H]1C(=O)N2C(C(=O)[O-])=C(C[N+]3(C)CCCC3)CS[C@H]12)c1csc(N)n1 [CEFEPIME]
Escherichia coli [1]
  MIC: 0.25 µg/mL (≈ 0.52 µM)
Escherichia coli [2]
  MIC: 0.5 µg/mL (≈ 1.04 µM)
Escherichia coli [3]
  MIC: 1 µg/mL (≈ 2.08 µM)
Escherichia coli [4]
  MIC: 0.25 µg/mL (≈ 0.52 µM)

## CO/N=C(\C(=O)N[C@@H]1C(=O)N2C(C(=O)O)=C(CSc3nc(=O)c(O)nn3C)CS[C@H]12)c1csc(N)n1 [CEFTRIAXONE]
Escherichia coli [1]
  MIC: 32 µg/mL (≈ 57.7 µM)
Escherichia coli [2]
  MIC: 32 µg/mL (≈ 57.7 µM)
Escherichia coli [3]
  MIC: 128 µg/mL (≈ 231 µM)
Escherichia coli [4]
  MIC: 32 µg/mL (≈ 57.7 µM)

## C[C@@H](O)[C@H]1C(=O)N2C(C(=O)O)=C(S[C@@H]3CN[C@H](C(=O)N(C)C)C3)[C@H](C)[C@H]12 [MEROPENEM]
Escherichia coli [1]
  MIC: ≤ 0.12 µg/mL
Escherichia coli [2]
  MIC: ≤ 0.12 µg/mL
Escherichia coli [3]
  MIC: ≤ 0.12 µg/mL
Escherichia coli [4]
  MIC: ≤ 0.12 µg/mL

## C[C@@H](O)[C@H]1C(=O)N2C(C(=O)O)=C(SCCNC=N)C[C@H]12 [IMIPENEM ANHYDROUS]
Escherichia coli [1]
  MIC: 0.5 µg/mL (≈ 1.67 µM)
Escherichia coli [2]
  MIC: 0.5 µg/mL (≈ 1.67 µM)
Escherichia coli [3]
  MIC: 0.5 µg/mL (≈ 1.67 µM)
Escherichia coli [4]
  MIC: 0.25 µg/mL (≈ 0.835 µM)

## CC(C)(O/N=C(\C(=O)N[C@@H]1C(=O)N2C(C(=O)[O-])=C(C[n+]3ccccc3)CS[C@H]12)c1csc(N)n1)C(=O)O [CEFTAZIDIME]
Escherichia coli [1]
  MIC: 64 µg/mL (≈ 117 µM)
Escherichia coli [2]
  MIC: 32 µg/mL (≈ 58.5 µM)
Escherichia coli [3]
  MIC: ≥ 128 µg/mL
Escherichia coli [4]
  MIC: 64 µg/mL (≈ 117 µM)

## CO[C@@]1(NC(=O)Cc2cccs2)C(=O)N2C(C(=O)O)=C(COC(N)=O)CS[C@@H]21 [CEFOXITIN]
Escherichia coli [1]
  MIC: 64 µg/mL (≈ 150 µM)
Escherichia coli [2]
  MIC: 128 µg/mL (≈ 299 µM)
Escherichia coli [3]
  MIC: ≥ 256 µg/mL
Escherichia coli [4]
  MIC: ≥ 256 µg/mL
